Patent publication US20030224349A1, “Rapid assay to assess the potential for glucocorticoid analogs to promote the differentiation of human osteoblasts and predict bone safety” (Pfizer Inc., priority 2002, published 2003)
Where two headings read alike, the source gives them in different places.

Tests used:
Type in all cases: cell-based
MMP13 = test: inhibition of IL-1β-induced MMP13 release in SW1353 chondrocyte cells (ELISA); details: Homo sapiens, read-out: IC50, concentration reducing the release of MMP13 50%
IL-8 = test: inhibition of IL-1β-induced IL-8 release in SW1353 chondrocyte cells (ELISA); details: Homo sapiens, SW1353, 24 h, read-out: IC50, concentration reducing the release of IL-8 50%
Description: Glucocorticoids have anti-inflammatory efficacy in a variety of cell models. Clinically, glucocorticoids set the benchmark for anti-inflammatory therapeutics.
For efficacy testing, 10,000 SW1353 cells (ATCC# HTB-94) were plated in 96 well plates in DMEM with 10% Fetal Bovine Serum (FBS). The next day media was changed to DMEM without serum.
After 24 hours the amount of MMP13 and IL-8 released into the media was quantified using commercial ELISA assays (Amersham and R&D Systems, respectively).
The concentration of compound reducing the release of MMP13 or IL-8 50% (IC50) was determined from the plot of the drug dose vs. percent inhibition relative to the vehicle control.

[1] = system: primary human osteoblasts; test: alkaline phosphatase assay in primary human osteoblasts; details: 13 days of treatment
Description: For alkaline phosphatase testing, primary human osteoblasts (Biowhittaker CC-2538) were plated at a density of 4,400 cells per well in 24-well plates containing OGM medium (Biowhittaker CC-3207) with 10% Fetal Bovine Serum (FBS). The next day media was changed to OGM medium supplemented with 0.1 mM ascorbic acid and 10 mM □-glycerophosphate (differentiation supplements, Biowhittaker CC-4194), and treated with reference and test compounds in a range of doses from 100 nM to 10 uM). Fresh media was added 2× per week.
After 13 days the cells were harvested and extract prepared for analysis.
Differentiation supplement medium was changed every three to four days with fresh test compound addition each time. After seven to thirteen days, the amount of alkaline phosphatase produced by the cultures was quantified using commercial alkaline phosphatase reagent (ALP Reagent) and standard (Sigma M2266 and 245-10, respectively).
Cells were rinsed with 0.9% NaCl, and lysed in alkaline phosphatase assay buffer (150 mM Tris-HCl pH 8, 0.1 mM MgCl2, 0.1 mM ZnCl2, 1% Triton X-100). Prewarmed ALP Reagent was added to lysate or to serial dilutions of the alkaline phosphatase standard and incubated at 37° C. for 30 minutes.
The calorimetric endpoint of absorbance at 405 nm was read on a SpectraMax 340 microplate reader (Molecular Devices), and after extrapolation from standard curve, values were reported in units of enzyme activity per volume.

[2] = system: primary human osteoblasts; test: nodule assay (Von Kossa staining) in primary human osteoblasts; details: 28 days of treatment
Description: Primary human osteoblasts were cultured as for the alkaline phosphatase assay. After 28 days of test compound treatment, the cultures were fixed with 70% ethanol for 10 minutes, stained with 5% silver nitrate solution and exposed to bright light (Polaroid imaging system with 4×150 watt lamps) for 20 to 30 minutes. Wells were rinsed with water, air dried and nodules documented by micrographs at 300× magnification.

IC50 (MMP13; SW1353, 24 h) [nM]	IC50 (IL-8) [nM]	IC50 (MMP13; SW1353 cells, 10 ng/ml IL-1β, 24 hours) [nM]	induction of alkaline phosphatase production/activity (in words) [1]	induction of alkaline phosphatase production/activity (in words) ([1]; listed as Hydrocortisone)	SMILES	alkaline phosphatase expression, % of dexamethasone maximum ([1]; at 1 uM)	nodule formation / mineral deposition (Von Kossa staining, in words) [2]
~1	~1	–	–	–	C[C@@H]1C[C@H]2[C@@H]3CCC4=CC(=O)C=C[C@]4(C)[C@@]3(F)[C@@H](O)C[C@]2(C)[C@@]1(O)C(=O)CO [dexamethasone]	–	–
–	–	60	stimulated	dose dependent increase	C[C@]12CCC(=O)C=C1CC[C@@H]1[C@@H]2[C@@H](O)C[C@@]2(C)[C@H]1CC[C@]2(O)C(=O)CO [hydrocortisone]	about 64%	dose-dependant nodule formation
